Measurements reported in patent publication US20250154109A1, “SODIUM CHANNEL BLOCKING COMPOUNDS, DERIVATIVES THEREOF, AND METHODS OF THEIR USE” (LATIGO BIOTHERAPEUTICS, INC, priority 2022, published 2025).
Counter-ions that a name gives are not always drawn. Like-named read-outs stand apart in the source and are kept apart here.

Molecular target: human Nav1.8 (Homo sapiens, UniProt Q9Y5Y9)
Assay: SyncroPatch384PE assay (automated patch clamp)
Type: cell-based
Settings: human Nav1.8/b3 CHO cells
[1] = inactivated state block (P2 measurement), read-out: P2 IC50
[2] = resting state block (P1 measurement), read-out: P1 IC50

Sequence of human Nav1.8 (Q9Y5Y9 whole entry): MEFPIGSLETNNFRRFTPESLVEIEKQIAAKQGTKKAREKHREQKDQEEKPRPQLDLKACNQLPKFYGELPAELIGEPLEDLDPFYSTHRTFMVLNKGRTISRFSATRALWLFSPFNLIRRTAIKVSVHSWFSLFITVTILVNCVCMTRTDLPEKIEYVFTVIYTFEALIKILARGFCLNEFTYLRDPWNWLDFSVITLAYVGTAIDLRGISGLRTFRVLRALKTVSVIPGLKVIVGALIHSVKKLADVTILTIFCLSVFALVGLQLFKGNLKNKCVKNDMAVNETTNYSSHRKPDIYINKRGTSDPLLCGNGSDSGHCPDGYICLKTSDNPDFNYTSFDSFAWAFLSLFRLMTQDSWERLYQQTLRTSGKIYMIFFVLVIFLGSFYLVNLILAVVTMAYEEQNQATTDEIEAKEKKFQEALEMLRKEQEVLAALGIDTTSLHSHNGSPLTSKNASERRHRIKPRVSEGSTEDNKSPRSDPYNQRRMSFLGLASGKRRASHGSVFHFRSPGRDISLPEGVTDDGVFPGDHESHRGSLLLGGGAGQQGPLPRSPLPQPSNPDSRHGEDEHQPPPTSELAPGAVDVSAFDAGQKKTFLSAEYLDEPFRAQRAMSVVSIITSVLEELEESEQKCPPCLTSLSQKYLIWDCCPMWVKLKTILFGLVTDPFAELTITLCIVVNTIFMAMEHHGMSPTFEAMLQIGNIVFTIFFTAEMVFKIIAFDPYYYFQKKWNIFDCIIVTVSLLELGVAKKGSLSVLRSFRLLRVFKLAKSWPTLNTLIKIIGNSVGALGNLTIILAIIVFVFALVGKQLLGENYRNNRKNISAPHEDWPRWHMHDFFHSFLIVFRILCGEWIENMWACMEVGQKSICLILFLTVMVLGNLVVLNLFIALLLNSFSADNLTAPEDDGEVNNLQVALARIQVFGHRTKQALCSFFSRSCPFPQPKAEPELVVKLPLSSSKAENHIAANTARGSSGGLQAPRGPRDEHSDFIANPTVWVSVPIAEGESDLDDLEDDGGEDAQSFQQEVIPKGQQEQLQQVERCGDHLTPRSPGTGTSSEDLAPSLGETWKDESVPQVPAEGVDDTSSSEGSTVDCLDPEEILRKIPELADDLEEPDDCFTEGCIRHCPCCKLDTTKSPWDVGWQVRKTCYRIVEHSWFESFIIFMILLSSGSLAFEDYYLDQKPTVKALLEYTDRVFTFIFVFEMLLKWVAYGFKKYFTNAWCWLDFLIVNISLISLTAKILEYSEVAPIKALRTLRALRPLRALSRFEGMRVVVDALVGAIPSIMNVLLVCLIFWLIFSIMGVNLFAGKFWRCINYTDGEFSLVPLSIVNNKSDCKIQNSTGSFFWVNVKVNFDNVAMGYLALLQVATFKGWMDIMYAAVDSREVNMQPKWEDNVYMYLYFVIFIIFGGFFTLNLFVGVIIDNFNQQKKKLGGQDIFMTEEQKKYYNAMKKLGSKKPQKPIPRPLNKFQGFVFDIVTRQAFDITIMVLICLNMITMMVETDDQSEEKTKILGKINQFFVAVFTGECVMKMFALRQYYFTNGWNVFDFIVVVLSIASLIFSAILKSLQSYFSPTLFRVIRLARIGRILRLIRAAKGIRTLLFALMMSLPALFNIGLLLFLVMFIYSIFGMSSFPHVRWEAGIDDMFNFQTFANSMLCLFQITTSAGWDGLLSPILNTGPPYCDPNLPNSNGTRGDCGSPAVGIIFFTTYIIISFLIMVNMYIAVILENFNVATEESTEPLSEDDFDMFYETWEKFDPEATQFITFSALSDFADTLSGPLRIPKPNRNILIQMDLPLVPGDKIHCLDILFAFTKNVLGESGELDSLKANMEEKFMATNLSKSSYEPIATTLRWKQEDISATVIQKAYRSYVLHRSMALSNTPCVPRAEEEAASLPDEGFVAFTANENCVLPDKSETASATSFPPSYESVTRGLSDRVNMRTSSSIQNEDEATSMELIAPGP

Structure (SMILES) | IC50 [1] | IC50 [2]
CS(=O)(=O)c1cccc(NC(=O)c2nnc(C(F)(F)F)cc2N2CCCCCC2)c1 [Example 37, 4-(Azepan-1-yl)-N-(3-(methylsulfonyl)phenyl)-6-(trifluoromethyl)pyridazine-3-carboxamide] | > 200 nM | > 200 nM
Cc1c(-c2cn[nH]c2)cnc(N2CCCC(F)(F)CC2)c1C(=O)Nc1cccc([S@](C)(=N)=O)c1 [Example 144, (R)-2-(4,4-difluoroazepan-1-yl)-4-methyl-N-(3-(S-methylsulfonimidoyl)phenyl)-5-(1H-pyrazol-4-yl)nicotinamide] | > 200 nM | > 200 nM
Cc1c(C(F)(F)F)cnc(N2CCCC(F)(F)CC2)c1C(=O)Nc1cccc([S@@](C)(=O)=NC(=O)CN)c1 [Example 181, (R)-2-(4,4-difluoroazepan-1-yl)-N-(3-(N-glycyl-S-methylsulfonimidoyl)phenyl)-4-methyl-5-(trifluoromethyl)nicotinamide] | ≤ 5 nM | ≤ 5 nM
Cc1c(-c2ccc(C(F)F)cc2)nnc(N2CCCC(F)(F)CC2)c1C(=O)Nc1cccc([S@](C)(=N)=O)c1 [Example 167, (R)-3-(4,4-difluoroazepan-1-yl)-6-(4-(difluoromethyl)phenyl)-5-methyl-N-(3-(S-methylsulfonimidoyl)phenyl)pyridazine-4-carboxamide] | 5 to 50 nM | 5 to 50 nM
Cc1c(C(=O)Nc2cccc([S@@](C)(=O)=NC(=O)[C@@H](C)O)c2)c(N2CCCC(F)(F)CC2)nc(C(F)(F)F)c1-c1cnn(C)c1 [Example 236, 2-(4,4-difluoroazepan-1-yl)-N-(3-((R)-N-((R)-2-hydroxypropanoyl)-S-methylsulfonimidoyl)phenyl)-4-methyl-5-(1-methyl-1H-pyrazol-4-yl)-6-(trifluoromethyl)nicotinamide] | ≤ 5 nM | ≤ 5 nM
O=C(Nc1ccnnc1)c1nnc(C(F)(F)F)cc1N1CCCC(F)(F)CC1 [Example 32, 4-(4,4-Difluoroazepan-1-yl)-N-(pyridazin-4-yl)-6-(trifluoromethyl)pyridazine-3-carboxamide] | > 200 nM | > 200 nM
Cc1c(C(=O)Nc2cccc([S@@](C)(=O)=NC(=O)[C@@H]3CCCN3)c2)c(N2CCCC(F)(F)CC2)nc(C(F)(F)F)c1-c1cnn(C)c1 [Example 190, N-(3-((R)-N-(L-prolyl)-S-methylsulfonimidoyl)phenyl)-2-(4,4-difluoroazepan-1-yl)-4-methyl-5-(1-methyl-1H-pyrazol-4-yl)-6-(trifluoromethyl)nicotinamide] | ≤ 5 nM | ≤ 5 nM
COc1ccc(-c2nnc(N3CCCC(F)(F)CC3)c(C(=O)Nc3cccc([S@@](C)(=N)=O)c3)c2C)cc1 (single isomer, unassigned) [Example 137] | > 200 nM | > 200 nM
Cc1c(C(=O)Nc2cccc([S@@](C)(=O)=NC(=O)CO)c2)c(N2CCCC(F)(F)CC2)nc(C(F)(F)F)c1-c1cnn(C)c1 [Example 191, (R)-2-(4,4-difluoroazepan-1-yl)-N-(3-(N-(2-hydroxyacetyl)-S-methylsulfonimidoyl)phenyl)-4-methyl-5-(1-methyl-1H-pyrazol-4-yl)-6-(trifluoromethyl)nicotinamide] | ≤ 5 nM | ≤ 5 nM
Cc1c(F)cnc(N2CCCC(F)(F)CC2)c1C(=O)Nc1cccc([S@](C)(=N)=O)c1 [Example 168, (R)-2-(4,4-difluoroazepan-1-yl)-5-fluoro-4-methyl-N-(3-(S-methylsulfonimidoyl)phenyl)nicotinamide] | 5 to 50 nM | 5 to 50 nM
Cc1c(-c2cc(F)cc(F)c2)cnc(N2CCCC(F)(F)CC2)c1C(=O)Nc1cccc([S@](C)(=N)=O)c1 [Example 61, (R)-2-(4,4-difluoroazepan-1-yl)-5-(3,5-difluorophenyl)-4-methyl-N-(3-(S-methylsulfonimidoyl)phenyl)nicotinamide] | ≤ 5 nM | ≤ 5 nM
Cc1c(-c2cnn(C)c2)cnc(N2CCCC(F)(F)CC2)c1C(=O)Nc1cccc([S@](C)(=N)=O)c1 [Example 45, (R)-2-(4,4-difluoroazepan-1-yl)-4-methyl-5-(1-methyl-1H-pyrazol-4-yl)-N-(3-(S-methylsulfonimidoyl)phenyl)nicotinamide] | 50 to 100 nM | 50 to 100 nM
Cc1c(-c2ccccc2)nnc(N2CCCC(F)(F)CC2)c1C(=O)Nc1cccc(S(C)(=N)=O)c1 (stereo not shown) [Example 20, 3-(4,4-difluoroazepan-1-yl)-5-methyl-N-(3-(S-methylsulfonimidoyl)phenyl)-6-phenylpyridazine-4-carboxamide] | 50 to 100 nM | 50 to 100 nM
Cc1c(C#N)c(C(F)(F)F)nc(N2CCCC(F)(F)CC2)c1C(=O)Nc1cccc([S@](C)(=N)=O)c1 [Example 56, (R)-5-cyano-2-(4,4-difluoroazepan-1-yl)-4-methyl-N-(3-(S-methylsulfonimidoyl)phenyl)-6-(trifluoromethyl)nicotinamide] | ≤ 5 nM | ≤ 5 nM

More lines, now with the values ahead:

IC50 [1] | IC50 [2] | Structure (SMILES)
> 200 nM | > 200 nM | O=C(Nc1cc[nH]c(=O)c1)c1nnc(C(F)(F)F)cc1N1CCCCCC1 [Example 36, 4-(Azepan-1-yl)-N-(2-oxo-1,2-dihydropyridin-4-yl)-6-(trifluoromethyl)pyridazine-3-carboxamide]
≤ 5 nM | ≤ 5 nM | Cc1c(-c2cnn(C)c2)cnc(N2CCCC(F)(F)CC2)c1C(=O)Nc1cccc([S@@](C)(=O)=NC(=O)[C@H](C)N)c1 [Example 76, N-(3-((R)-N-(L-alanyl)-S-methylsulfonimidoyl)phenyl)-2-(4,4-difluoroazepan-1-yl)-4-methyl-5-(1-methyl-1H-pyrazol-4-yl)nicotinamide formate]
≤ 5 nM | ≤ 5 nM | Cc1c(Cl)c(C(F)(F)F)nc(N2CCCC(F)(F)CC2)c1C(=O)Nc1cccc(S(C)(=N)=O)c1 (stereo not shown) [Example 41, 5-Chloro-2-(4,4-difluoroazepan-1-yl)-4-methyl-N-(3-(S-methylsulfonimidoyl)phenyl)-6-(trifluoromethyl)nicotinamide]
≤ 5 nM | ≤ 5 nM | Cc1c(C(F)(F)F)cnc(N2CCCC(F)(F)CC2)c1C(=O)Nc1cccc([S@@](C)(=N)=O)c1 [Example 163, (S)-2-(4,4-difluoroazepan-1-yl)-4-methyl-N-(3-(S-methylsulfonimidoyl)phenyl)-5-(trifluoromethyl)nicotinamide]
≤ 5 nM | ≤ 5 nM | Cc1cc(C(F)(F)F)nc(N2CCCC(F)(F)CC2)c1C(=O)Nc1cccc([S@](C)(=N)=O)c1 [Example 33, (R)-2-(4,4-Difluoroazepan-1-yl)-4-methyl-N-(3-(S-methylsulfonimidoyl)phenyl)-6-(trifluoromethyl)nicotinamide]
≤ 5 nM | ≤ 5 nM | Cc1c(C(=O)Nc2cccc([S@](C)(=N)=O)c2)c(N2CCCC(F)(F)CC2)nc(C(F)(F)F)c1-c1cnn(C)c1 [Example 133, (R)-2-(4,4-difluoroazepan-1-yl)-4-methyl-5-(1-methyl-1H-pyrazol-4-yl)-N-(3-(S-methylsulfonimidoyl)phenyl)-6-(trifluoromethyl)nicotinamide]
≤ 5 nM | ≤ 5 nM | C[S@+]([O-])c1cc(NC(=O)c2cc(Cl)c(C(F)(F)F)cc2N2CCCC(F)(F)CC2)ccc1F [Example 205, (S)-5-chloro-2-(4,4-difluoroazepan-1-yl)-N-(4-fluoro-3-(methylsulfinyl)phenyl)-4-(trifluoromethyl)benzamide]
> 200 nM | > 200 nM | Cc1c(C(F)(F)F)nnc(N2CCCCCC2)c1C(=O)N=S(C)(=O)c1cccc(N)c1 (stereo not shown) [Example 8, N-((3-aminophenyl)(methyl)(oxo)-λ^6-sulfaneylidene)-3-(azepan-1-yl)-5-methyl-6-(trifluoromethyl)pyridazine-4-carboxamide]
≤ 5 nM | ≤ 5 nM | Cc1c(C(F)(F)F)cnc(N2CCCC(F)(F)CC2)c1C(=O)Nc1cccc([S@@](C)(=O)=NC(=O)CN2CC(F)(F)C2)c1 [Example 202, (R)-2-(4,4-difluoroazepan-1-yl)-N-(3-(N-(2-(3,3-difluoroazetidin-1-yl)acetyl)-S-methylsulfonimidoyl)phenyl)-4-methyl-5-(trifluoromethyl)nicotinamide]
5 to 50 nM | 5 to 50 nM | C[S@@](=N)(=O)c1cccc(NC(=O)c2c(N3CCCC(F)(F)CC3)cnc(C(F)(F)F)c2Cl)c1 [Example 208, (R)-3-chloro-5-(4,4-difluoroazepan-1-yl)-N-(3-(S-methylsulfonimidoyl)phenyl)-2-(trifluoromethyl)isonicotinamide]
≤ 5 nM | ≤ 5 nM | Cc1c(C#N)c(C(F)(F)F)nc(N2CCCC(F)(F)CC2)c1C(=O)Nc1cccc([S@@](C)(=O)=NC(=O)CCN)c1 [Example 58, (R)-N-(3-(N-(3-aminopropanoyl)-S-methylsulfonimidoyl)phenyl)-5-cyano-2-(4,4-difluoroazepan-1-yl)-4-methyl-6-(trifluoromethyl)nicotinamide formate]
≤ 5 nM | ≤ 5 nM | Cc1nc(N2CCC3(CC2)CC3)c(C(=O)Nc2cccc([S@](C)(=N)=O)c2)cc1Cl [Example 26, (R)-5-Chloro-6-methyl-N-(3-(S-methylsulfonimidoyl)phenyl)-2-(6-azaspiro[2.5]octan-6-yl)nicotinamide]
> 200 nM | > 200 nM | Cc1c(-c2cnn(C)c2)cnc(N2CCCC(F)(F)CC2)c1C(=O)NC12CC(C(N)=O)(C1)C2 [Example 132, N-(3-carbamoylbicyclo[1.1.1]pentan-1-yl)-2-(4,4-difluoroazepan-1-yl)-4-methyl-5-(1-methyl-1H-pyrazol-4-yl)nicotinamide]
> 200 nM | > 200 nM | Cc1ccsc1-c1nnc(N2CCCCCC2)c(C(=O)Nc2cccc(S(C)(=N)=O)c2)c1C (stereo not shown) [Example 79, 3-(Azepan-1-yl)-5-methyl-N-(3-(S-methylsulfonimidoyl)phenyl)-6-(3-methylthiophen-2-yl)pyridazine-4-carboxamide]
100 to 200 nM | 100 to 200 nM | Cc1c(-c2ccccn2)cnc(N2CCCC(F)(F)CC2)c1C(=O)Nc1cccc(S(C)(=N)=O)c1 (stereo not shown) [Example 99, 6 C(4,4-difluoroazepan-1-yl)-4methyl-N-(3-(S-methylsulfonimidoyl)phenyl)-[2,3bipyridine]-5carboxamide]
